These results are taken from publication PMC8224398, “SARS-CoV-2 mutations in MHC-I-restricted epitopes evade CD8^+ T cell responses” (Science Immunology, 2021).

Experiment [1] concerns the target HLA-A*02:01 (Homo sapiens, UniProt P04439, D140Y/D185E/D98H/E176V/E277Q/G131W/G231S/I119V/I121R/I166T/I218V/L300P/L318F/N151K/N90K/P208A/P217A/Q86G/Q94H/R138H/R169H/T345S). The class given is binding.
For experiment [2], the system named is autologous EBV+ B cells pulsed with peptide. It is filed as cell-based, human. To be noted: 5 h at 37°C.
The target in experiment [3] is HLA-B*40:01 (Homo sapiens, UniProt P01889, A65T/A93T/A95T/D138N/D98Y/E176V/E69K/N87E/Q56L/Q94N/R180L/S121R/S35A/S48T/T167S/V36M/W171L/Y33H/Y91S). The class given is binding.

YFQPRTFLL [YLQ mutant]: the “binding to HLA-A*02:01 (thermal stability of the peptide-MHC-I complex, DSF)” value in experiment [1] is on record as “weak binder”. For the same sequence, in experiment [2], the “killing of EBV+ B cells pulsed with the peptide by wild type YLQ expanded PBMCs” value is “failed to kill”; the “killing of peptide-pulsed EBV+ B cells by PBMCs expanded with the peptide” value was “failed to kill both wild type and mutant peptide pulsed EBV^+ B cells”.
Consider LFFNKVTLA, for which the “binding to HLA-A*02:01 (thermal stability of the peptide-MHC-I complex, DSF)” value in experiment [1] was “non-binder”.
In the case of MEVTPSGTWL, the “binding to HLA-A*02:01 (thermal stability of the peptide-MHC-I complex, DSF)” value in experiment [1] was “not to HLA-A*02:01”. Besides, the “binding to recombinant HLA-B*40:01 (DSF)” value in experiment [3] is “specific binding”.
For LALLLLDRL, the “binding to HLA-A*02:01 (thermal stability of the peptide-MHC-I complex, DSF)” value in experiment [1] is on record as “did neither observe binding”.
Same read-out and setting: the entry for LQLPQGTTL is “did neither observe binding”.
YLQPRTFLL [YLQ wildtype]: in experiment [2], the “killing of EBV+ B cells pulsed with the peptide by wild type YLQ expanded PBMCs” value is “specific killing”.
